Biological target: human DGAT2 (Homo sapiens (Human), UniProt Q96PD7)
Experiment: Measurement of inhibitory effect against DGAT2 enzyme activity (SPA, Phospholipid FlashPlate, [14C]-TG production)
Assay type: biochemical
Details: recombinant human DGAT2 membrane protein from Sf-21 cells; inhibition of [14C]-TG production; 37° C.
Source text: Experimental Example: Measurement of Inhibitory Effect Against DGAT2 Enzyme Activity
1. Preparation of DGAT2 Expression Vector
In order to prepare the pBacPAK9-DGAT2, which is DGAT2 expression vector, the human DGAT2 gene amplified by polymerase chain reaction (PCR) was cloned into the EcoR1 and Xho1 sites of the pBacPAK9 (clonctech) vector. The nucleotide sequence of the primers used in PCR was the forward primer 5′ […] and the reverse primer 5′ […]. The composition of the reaction solution was to contain 50 ng of cDNA clone (OriGene), 200 μM of dATP, dCTP, dTTP, dGTP, 200 nM of each primer, 1 unit of Tag DNA Polymerase (Toyobo), 1x PCR buffer, and the final volume was adjusted to 20 μl. The reaction conditions were denatured at 95° C. for 5 minutes, followed by 30 times of 94° C. for 20 seconds, 60° C. for 20 seconds, and 72° C. for 90 seconds, followed by further reaction at 72° C. for 7 minutes.
2. DGAT2 Expression and Preparation of Membrane Protein
Recombinant human DGAT2 protein was expressed in Sf-21 cells, which are insect cells, by using the BacPack baculovirus expression system (Clontech). The brief manufacturing process is as follows. First, the pBacPAK9-DGAT2 expression vector was transfected with BacPAK6 virus DNA (Bsu36I digest) into sf21 cells using Bacfectin to prepare a recombinant DGAT2 expressing baculovirus. The thus prepared baculovirus was infected with Sf-21 cells at 10 MOI (multiplicity of infection), and after 72 hours, infected insect cells were collected and membrane proteins were isolated. For membrane protein separation, the cell pellet was dissolved in a sucrose solution containing 250 mM sucrose, 10 mM Tris (pH 7.4), and 1 mM ethylenediamine-tetraacetic acid (EDTA), and then homogenized by using a dounce homogenizer, and the supernatant was taken by centrifuging at 600×g for 15 minutes, and centrifuged at 100,000×g for 1 hour to discard the supernatant, and the remaining pellet was resuspended in 20 mM HEPES buffer (pH 7.4). The prepared DGAT2 overexpressing membrane protein was dispensed in 100 μl and stored at −80° C. until use. Protein concentration was quantified by using the BCA Protein Assay Kit (Thermo Scientific).
3. Measurement of Inhibitory Effect Against DGAT2 Enzyme Activity
In vitro DGAT2 analysis was performed using a Phospholipid Flash Plate (PerkinElmer) based on the principle of SPA (Scintilation Proximity Assay). First, DGAT2 inhibition compounds serially diluted 5 times from 3 nM to 10 μM (final concentration, 1% DMSO) were mixed in a buffer solution containing 2 μg DGAT2-membrane protein and 20 mM HEPES, 20 mM MgCl2, 1 mg/mL BSA, 50 μM 1,2 sn-oleoyl glycerol (Sigma), put in a 96-well flash plate (FlashPlate) and reacted at 37° C. for 20 minutes, and then 1 μM [14C] ole oil CoA (PerkinElmer, NEC651050UC) was added to be a final volume of 100 μL and further reacted at 37° C. for 15 minutes. After the enzymatic reaction was completed, 100 μL of isopropanol was added, the plate was sealed with a film, and the plate was shaken slowly in a plate shaker. The next day, the amplified scintillation signal (cpm) in Topcounter (Packard) was measured to measure the degree of production of [14C]-labeled triacyl glycerol (TG) as a reaction product. The measured value when the compound was not treated was used as a positive control, and the measured value of the compound treated group was calculated as a relative % to measure the inhibition effect of the compound on TG production. The IC50 value, which is the concentration of the compound that inhibits TG production by 50%, was determined by treating the response value according to the compound concentration with a nonlinear regression curve using PRISM (Graphpad Inc.).

Chain of human DGAT2 (Q96PD7 whole entry): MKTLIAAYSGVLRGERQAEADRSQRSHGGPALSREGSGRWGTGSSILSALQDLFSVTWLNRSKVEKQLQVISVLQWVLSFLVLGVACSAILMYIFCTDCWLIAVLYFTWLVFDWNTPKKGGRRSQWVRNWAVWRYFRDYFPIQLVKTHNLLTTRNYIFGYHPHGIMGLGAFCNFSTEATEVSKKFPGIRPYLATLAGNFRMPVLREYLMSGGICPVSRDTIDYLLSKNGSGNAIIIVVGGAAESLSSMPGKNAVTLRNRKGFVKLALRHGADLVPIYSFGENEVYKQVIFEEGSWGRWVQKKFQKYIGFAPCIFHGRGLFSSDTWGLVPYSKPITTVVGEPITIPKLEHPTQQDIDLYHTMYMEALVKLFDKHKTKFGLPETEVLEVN

Row | Structure (SMILES) | IC50 [nM]
1 | CCOc1ccccc1Oc1cncc(-c2cncc(NC(=O)CCc3ccccc3)n2)c1 [Example 1, N-(6-(5-(2-ethoxyphenoxy)pyridin-3-yl)pyrazin-2-yl)-3-phenylpropanamide] | 35
2 | CCOc1ccccc1Oc1cncc(-c2cncc(NC(=O)Cc3ccc(CC(=O)OC)cc3)n2)c1 [Example 2, methyl 2-(4-(2-((6-(5-(2-ethoxyphenoxy)pyridin-3-yl)pyrazin-2-yl)amino)-2-oxoethyl)phenyl)acetate] | 27
3 | CCOc1ccccc1Oc1cncc(-c2cncc(NC(=O)Cc3ccc(CC(=O)O)cc3)n2)c1 [Example 3, 2-(4-(2-((6-(5-(2-ethoxyphenoxy)pyridin-3-yl)pyrazin-2-yl)amino)-2-oxoethyl)phenyl)acetic acid] | 3400
4 | CCOc1ccccc1Oc1cncc(-c2cncc(NC(=O)CCc3ccc(CC(=O)O)cc3)n2)c1 [Example 4, 2-(4-(3-((6-(5-(2-ethoxyphenoxy)pyridin-3-yl)pyrazin-2-yl)amino)-3-oxopropyl)phenyl)acetic acid] | 290
5 | CCOc1ccccc1Oc1cncc(-c2cncc(NC(=O)CCc3ccc(C(C)(C)C(=O)OC)cc3)n2)c1 [Example 5, methyl 2-(4-(3-((6-(5-(2-ethoxyphenoxy)pyridin-3-yl)pyrazin-2-yl)amino)-3-oxopropyl)phenyl)-2-methylpropanoate] | 11
6 | CCOc1ccccc1Oc1cncc(-c2cncc(NC(=O)Cc3ccc(CC(C)(C)C(=O)O)cc3)n2)c1 [Example 7, 3-(4-(2-((6-(5-(2-ethoxyphenoxy)pyridin-3-yl)pyrazin-2-yl)amino)-2-oxoethyl)phenyl)-2,2-dimethylpropanoic acid] | 36
7 | CCOc1ccccc1Oc1cncc(-c2cncc(Nc3nccc(N4CCC[C@@H](C(=O)O)C4)n3)n2)c1 [Example 8, (R)-1-(2-((6-(5-(2-ethoxyphenoxy)pyridin-3-yl)pyrazin-2-yl)amino)pyrimidin-4-yl)piperidine-3-carboxylic acid] | 1800
8 | CCOc1ccccc1Oc1cncc(-c2cncc(Nc3cccc(-c4cccc(CC(C)(C)C(=O)O)c4)n3)n2)c1 [Example 9, 3-(3-(6-((6-(5-(2-ethoxyphenoxy)pyridin-3-yl)pyrazin-2-yl)amino)pyridin-2-yl)phenyl)-2,2-dimethylpropanoic acid] | 160
9 | CCOc1ccccc1Oc1cccc(-c2cncc(NC(=O)CCc3ccc(OC(C)(C)C(=O)O)cc3)n2)c1 [Example 13, 2-(4-(3-((6-(3-(2-ethoxyphenoxy)phenyl)pyrazin-2-yl)amino)-3-oxopropyl)phenoxy)-2-methylpropanoic acid] | 330
10 | CCOc1ccccc1Oc1cccc(-c2cncc(NC(=O)Cc3ccc(CC(C)(C)C(=O)O)cc3)n2)c1 [Example 15, 3-(4-(2-((6-(3-(2-ethoxyphenoxy)phenyl)pyrazin-2-yl)amino)-2-oxoethyl)phenyl)-2,2-dimethylpropanoic acid] | 13
11 | CCOc1ccccc1Oc1cccc(-c2cncc(NC(=O)C(C)(C)c3ccc(CC(C)(C)C(=O)O)cc3)n2)c1 [Example 18, 3-(4-(1-((6-(3-(2-ethoxyphenoxy)phenyl)pyrazin-2-yl)amino)-2-methyl-1-oxopropan-2-yl)phenyl)-2,2-dimethylpropanoic acid] | 22
12 | CCOc1ccccc1Oc1cccc(-c2cncc(NC(=O)Cc3ccc(OC(C)(C)C(=O)O)cc3)n2)c1 [Example 19] | 430
13 | CCOc1ccccc1Oc1cccc(-c2cncc(Nc3nccc(-c4ccc(CC(=O)O)cc4)n3)n2)c1 [Example 20, 2-(4-(2-((6-(3-(2-ethoxyphenoxy)phenyl)pyrazin-2-yl)amino)pyrimidin-4-yl)phenyl)acetic acid] | 3900
14 | CCOc1ccccc1Oc1cccc(-c2cncc(Nc3nccc(O[C@H]4CC[C@H](C(=O)O)CC4)n3)n2)c1 [Example 21, (1r,4r)-4-((2-((6-(3-(2-ethoxyphenoxy)phenyl)pyrazin-2-yl)amino)pyrimidin-4-yl)oxy)cyclohexane-1-carboxylic acid] | 1200
15 | CCOc1ccccc1Oc1cccc(-c2cncc(NC(=O)CCc3ccccc3)n2)n1 [Example 22, N-(6-(6-(2-ethoxyphenoxy)pyridin-2-yl)pyrazin-2-yl)-3-phenylpropanamide] | 2100
16 | CCOc1ccccc1Oc1cccc(-c2cncc(NC(=O)Cc3ccc(CC(C)(C)C(=O)O)cc3)n2)n1 [Example 23, 3-(4-(2-((6-(6-(2-ethoxyphenoxy)pyridin-2-yl)pyrazin-2-yl)amino)-2-oxoethyl)phenyl)-2,2-dimethylpropanoic acid] | 61
17 | CCOc1ccccc1Oc1cccc(-c2cncc(Nc3nccc(N4CCC[C@@H](C(=O)O)C4)n3)n2)n1 [Example 24, (R)-1-(2-((6-(6-(2-ethoxyphenoxy)pyridin-2-yl)pyrazin-2-yl)amino)pyrimidin-4-yl)piperidine-3-carboxylic acid] | 7400
18 | CCOc1ccccc1Oc1cccc(-c2cncc(Nc3cccc(-c4cccc(CC(C)(C)C(=O)O)c4)n3)n2)n1 [Example 25, 3-(3-(6-((6-(6-(2-ethoxyphenoxy)pyridin-2-yl)pyrazin-2-yl)amino)pyridin-2-yl)phenyl)-2,2-dimethylpropanoic acid] | 450
19 | CCOc1cccnc1Oc1cccc(-c2cncc(NC(=O)CCc3ccc(C(C)(C)C(=O)O)cc3)n2)c1 [Example 26, 2-(4-(3-((6-(3-((3-ethoxypyridin-2-yl)oxy)phenyl)pyrazin-2-yl)amino)-3-oxopropyl)phenyl)-2-methylpropanoic acid] | 21
20 | CCOc1cccnc1Oc1cccc(-c2cncc(NC(=O)Cc3ccc(CC(C)(C)C(=O)O)cc3)n2)c1 [Example 27, 3-(4-(2-((6-(3-((3-ethoxypyridin-2-yl)oxy)phenyl)pyrazin-2-yl)amino)-2-oxoethyl)phenyl)-2,2-dimethylpropanoic acid] | 7.4
21 | CCOc1cccnc1Oc1cccc(-c2cncc(NC(=O)CCc3ccc(OC(C)(C)C(=O)O)cc3)n2)c1 [Example 28, 2-(4-(3-((6-(3-((3-ethoxypyridin-2-yl)oxy)phenyl)pyrazin-2-yl)amino)-3-oxopropyl)phenoxy)-2-methylpropanoic acid] | 210
22 | CCOc1cccnc1Oc1cccc(-c2cncc(NC(=O)C(C)(C)c3ccc(CC(C)(C)C(=O)O)cc3)n2)c1 [Example 29, 3-(4-(1-((6-(3-((3-ethoxypyridin-2-yl)oxy)phenyl)pyrazin-2-yl)amino)-2-methyl-1-oxopropane-2-yl)phenyl)-2,2-dimethylpropanoic acid] | 6.7
23 | CCOc1cccnc1Oc1cccc(-c2cncc(Nc3nccc(N4CCC[C@@H](C(=O)O)C4)n3)n2)c1 [Example 31, (R)-1-(2-((6-(3-((3-ethoxypyridin-2-yl)oxy)pheny)pyrazin-2-yl)amino)pyrimidin-4-yl)piperidine-3-carboxylic acid] | 9200
24 | CCOc1cccnc1Oc1cccc(-c2cncc(Nc3cccc(-c4cccc(CC(C)(C)C(=O)O)c4)n3)n2)c1 [Example 32, 3-(3-(6-((6-(3-((3-ethoxypyridin-2-yl)oxy)phenyl)pyrazin-2-yl)amino)pyridin-2-yl)phenyl)-2,2-dimethylpropanoic acid] | 70
25 | CCOc1cccnc1Oc1cccc(-c2cncc(Nc3nccc(O[C@H]4CC[C@H](C(=O)O)CC4)n3)n2)c1 [Example 33, (1r,4r)-4-((2-((6-(3-((3-ethoxypyridin-2-yl)oxy)phenyl)pyrazin-2-yl)amino)pyrimidin-4-yl)oxy)cyclohexane-1-carboxylic acid] | 3400
